US20170049843A1, “Hepatocyte Growth Factor Mimics as Therapeutic Agents” (WASHINGTON STATE UNIVERSITY, priority 2011, published 2017)
“Also recorded” adds a separate entry of the source. Where two headings read alike, the source gives them in different places. Where a SMILES comes first, the peptide text is derived from it. [ ]: non-standard residue; d: D form. The star is where a group is joined. Hexanoyl = CCCCCC(=O)*; Ahx = NCCCCCC(=O)O

Key:
c-Met receptor = assay: c-Met phosphorylation in acute adult hippocampal slices; assay type: cell-based, rat; conditions: 30 minutes
Source text: Adult Sprague-Dawley rats (250 g+) obtained from Harlan Laboratories (Ca, USA) were anesthetized with isofluorane (Vet One™, MWI, Meridian, Id., USA) and decapitated. The brain was rapidly removed and placed into ice-chilled artificial cerebrospinal fluid (aCSF) for approximately 30 s. Both hemispheres were separated by a mid-saggital cut and both hippocampi removed. Slices were sectioned cross- and length-wise (400 μm) to ensure penetrability of the drug, using a McIlwain tissue chopper (Brinkmann, Gomshall, UK) and transferred to a gassed (95% O2/5% CO2) incubation chamber containing aCSF for 90 minutes at room temperature. Slices were transferred to fresh tubes, aCSF was removed by careful suctioning and replaced with aCSF containing vehicle (aCSF+aCSF), 100 ng/ml with carrier free adult recombinant Hepatocyte Growth Factor (HGF) (R and D Systems, MN, USA) in aCSF, 10^−10 M Hinge (Harding lab), […], 10^−10 M Dihexa (Harding lab) in aCSF, 10^−12 M Dihexa in aCSF or 50 ng/ml HGF+10^−12 M Dihexa in aCSF for 30 minutes at 37° C. with gentle rocking. aCSF was removed and the slices were lysed using RIPA buffer (Upstate/Milipore, Billerica, Mass.) and inhibitor Cocktails I and II (Sigma, St. Louis, Mo.), sonicated on ice and clarified by centrifugation for 30 minutes, 13,000 rpm at 4° C. The supernatant was removed from the pellet and stored at −80° C. or processed immediately for gel electrophoresis.
Protein concentration of the samples was quantified using the BCA method (Pierce, Rockford, Ill.) following the manufacturers protocol. Samples were added to SDS-PAGE buffer and boiled for 10 min. before loading onto a 4-12% Bis-Tris pre-cast gel (Invitrogen, Carlsbad, Calif.) for electrophoresis. Proteins were transferred onto PVDF membranes (Bio Rad, Hercules, Calif.) and blocked with AquaBlock™ (New England Biolabs, Ipswich, Mass.) for 1 hour at room temperature (RT). Primary antibody incubation was done in AquaBlock™ with rabbit anti-Met and […] phospho-Met (Tyr1234/1235) (1:1000, Cell Signaling Technology, Danvers, Mass.) overnight at 4° C. Alternating washes were done with PBS and PBST. Secondary antibody (IRDye) (Rockland, Gilbertsville, Pa.) incubations were done in AquaBlock™ for one hour at RT. Blots were imaged using LI-COR Odyssey Infrared Imaging System (LI-COR Biosciences, Lincoln, Nebr.).

aged rats = assay: Morris water maze, aged rat model; assay type: in vivo; conditions: oral 2 mg/kg/day, 8 days, vs untreated
Protocol: FIG. 37. Dihexa improves spatial learning in aged rats. Group latencies to find the submerged platform in the Morris water maze task of spatial memory are shown. Five minutes before beginning testing 24 month old mixed sex (3 male and 3 female/group) Sprague Dawley rats were administered […] (2 mg/kg) orally by gavage (suspension in isotonic NaCl), on a daily basis. There were 5 trials per day for 8 days. The latency to find the pedestal was considered a measure of learning and memory. […] Swim speed was determined from these values.

MDCK cells = assay: Augmentation of HGF-dependent cell scattering in MDCK cells; assay type: cell-based, canine
Protocol: HGF mimetic activity was typically assessed by one or both of two methods: augmentation of HGF-dependent c-Met phosphorylation in HEK293 cells, or 2) augmentation of HGF-dependent cell scattering in MDCK cells. All the compounds in Family one were tested using the c-Met phosphorylation assay. […]
MDCK cells were grown to 100% confluency on the coverslips in six-well plates and washed twice with PBS. The confluent coverslips were then aseptically transferred to new six well plates containing 900 μl serum free DMEM. Norleual, Hinge peptide, and/or HGF (2.5 ng/ml) were added to appropriate wells. Control wells received PBS vehicle. Plates were incubated at 37° C. with 5% CO2 for 48 hours. Media was removed and cells were fixed with methanol. Cells were stained with Diff-Quik Wright-Giemsa (Dade-Behring, Newark, Del.) and digital images were taken. Coverslips were removed with forceps and more digital images were captured. Pixel quantification of images was achieved using Image J and statistics were performed using Prism 5 and InStat v.3.05.

Blood stability studies = assay type: in vitro ADME, rat; conditions: data not shown
HGF = molecular target: T1, HGF (Homo sapiens, UniProt P14210); assay: HGF dimerization; assay type: biochemical; conditions: Dihexa, 30 minutes in the presence of heparin
T1 construct: purchased R&D Systems (Minneapolis, Minn.)
Protocol: HGF dimerization was assessed using PAGE followed by silver staining (Kawas et al., 2011). Human HGF at a concentration of 0.08 ng/μl with or without 6-AH analogs was incubated with heparin at a final concentration of 5 μg/ml. Loading buffer was then added to each sample and the mixture separated by native PAGE using gradient Criterion XT precast gels (4-12% Bis-Tris; Biorad Laboratories, Hercules, Calif.). Next the gel was silver stained for the detection of the HGF monomers and dimers. Bands were quantitated from digital images using a UVP phosphoimager (Upland, Calif.).

[1] = Brain uptake of 3H-dihexa after carotid infusion; assay type: in vivo, rat; conditions: 30 minutes after infusion
Protocol: FIG. 32. […] Rats fitted with a carotid cannula were anesthetized and infused with 0.5 ml of isotonic saline containing 10 μCi of ^3H-dihexa and 2 μCi ^14C-Inulin, a vascular marker. Thirty minutes after infusion the rats were decapitated, the brains removed, and various brain regions dissected. The tissues were then weighed and solubilized with NCS, an organic protein solubilizing agent, and 10 ml of scintillation was added. Samples were counted with a scintillation counter using two different windows to quantitate both ^3H and ^14C counts. ^3H/^14C ratios were determined so that blood derived dihexa contamination of tissues could be determined. […] The average ^3H/^14C for blood was 1687. Mean+/−S.E.M.: n=4.

hippocampal neurons [2] = assay: Protection of hippocampal neurons from growth factor deprivation; assay type: cell-based; conditions: starved 72 hrs, +/− HGF sub-threshold
Protocol: FIG. 46. […] Dissociated hippocampal neurons were starved for 72 hrs+/−HGF at sub-threshold concentrations […] and or Dihexa at 2 different concentrations 10^−8M and 10^−8M. (**p<0.001.*** p<0.000I; Mean+/−SEM).

hippocampal neurons [3] = assay: Protection of hippocampal neurons from oxidative stress (H2O2); assay type: cell-based; conditions: 100 μM H2O2, 24 hrs, +/− HGF sub-threshold
Protocol: FIG. 47. […] Dissociated hippocampal neurons were treated with 100 μM H2O2 for 24 hrs+/−HGF at sub-threshold concentrations […] and or Dihexa at 2 different concentrations 10^−8M and 10^−8M. (+p<0.05, ++p<0.0I; Mean+/−SEM).

[4] = non-saturating doses: HGF 50 ng/ml, Dihexa 10^−12 M
[5] = saturating doses: HGF 100 ng/ml, Dihexa 10^−10 M

T1 sequence (P14210 32-728): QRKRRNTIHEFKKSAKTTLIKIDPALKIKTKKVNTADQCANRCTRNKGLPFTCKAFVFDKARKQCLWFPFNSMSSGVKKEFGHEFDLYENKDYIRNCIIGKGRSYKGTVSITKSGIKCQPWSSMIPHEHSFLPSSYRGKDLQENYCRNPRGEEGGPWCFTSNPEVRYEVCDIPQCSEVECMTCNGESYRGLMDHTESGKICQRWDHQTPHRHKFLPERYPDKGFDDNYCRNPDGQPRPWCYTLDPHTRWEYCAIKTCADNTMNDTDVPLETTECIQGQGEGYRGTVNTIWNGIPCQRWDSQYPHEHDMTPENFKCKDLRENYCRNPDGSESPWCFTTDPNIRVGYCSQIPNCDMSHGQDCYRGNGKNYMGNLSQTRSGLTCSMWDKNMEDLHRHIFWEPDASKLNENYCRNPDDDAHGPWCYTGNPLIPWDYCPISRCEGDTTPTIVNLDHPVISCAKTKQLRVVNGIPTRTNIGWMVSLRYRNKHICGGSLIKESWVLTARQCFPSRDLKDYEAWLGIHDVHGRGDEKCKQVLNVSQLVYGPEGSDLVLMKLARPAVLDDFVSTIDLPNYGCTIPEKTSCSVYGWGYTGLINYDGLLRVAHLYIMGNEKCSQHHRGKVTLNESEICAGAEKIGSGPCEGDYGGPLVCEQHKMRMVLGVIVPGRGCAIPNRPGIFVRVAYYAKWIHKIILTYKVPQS

Row | Compound | c-Met phosphorylation vs control (aCSF) (c-Met receptor; [4]) | c-Met phosphorylation vs control (aCSF) (c-Met receptor; [5]) | water maze performance (latency) of aged rats (aged rats) | augmentation of HGF-dependent MDCK cell scattering (MDCK cells) | augmentation of HGF-dependent MDCK cell scattering (MDCK cells; listed as N-hexanoyl-Tyr-Ile-(6) aminohexamide) | stable in the blood (Blood stability studies) | inhibition of HGF dimerization (HGF) | concentration of dihexa in brain regions compared to blood ([1]; 3H/14C ratios) | average 3H/14C ratio for blood ([1]; 10 μCi 3H-dihexa and 2 μCi 14C-Inulin, n=4) | protection of neurons from growth factor deprivation (hippocampal neurons [2]) | protection of neurons from oxidative stress (hippocampal neurons [3])
1 | HGF: recombinant hepatocyte growth factor (R&D Systems), ligand of c-Met | not statistically different from control treated slices | increased c-Met phosphorylation | – | – | – | – | – | – | – | – | –
2 | CCCCCC(=O)N[C@@H](Cc1ccc(O)cc1)C(=O)N[C@H](C(=O)NCCCCCC(N)=O)[C@@H](C)CC [Dihexa, N-hexanoic-Tyr-Ile-(6)-aminohexanoic amide] (Hexanoyl-Tyr-Ile-[Ahx]-NH2) | not statistically different from control treated slices | increased c-Met phosphorylation | preformed significantly better in the water maze than untreated rats; also recorded: performed significantly better than untreated controls; also recorded: significantly different than that of the non-treated rats | stimulate MDCK cell scattering | spectacularly augment HGF-dependent MDCK cell scattering | over 5 hours | blocks HGF dimerization | all brain regions concentrated dihexa | 1687 | protects neurons from growth factor deprivation | protects neurons from oxidative stress
